Measured values published in ChEMBL document CHEMBL1201862, “PubChem BioAssay data set” (2004).
One block for each compound: values may come before it. Calls of active or inactive are those of the source.

What was measured:
Aminopeptidase N = target: T1, Aminopeptidase N (Plasmodium falciparum FcB1/Columbia, UniProt O96935); assay: P. falciparum M1AAP inhibitors, biochemical, fluorogenic H-Leu-NHMec substrate, 1536-well (AID 1445); set-up: species or system Plasmodium falciparum 3D7, 3D7
T1 sequence (O96935 whole entry): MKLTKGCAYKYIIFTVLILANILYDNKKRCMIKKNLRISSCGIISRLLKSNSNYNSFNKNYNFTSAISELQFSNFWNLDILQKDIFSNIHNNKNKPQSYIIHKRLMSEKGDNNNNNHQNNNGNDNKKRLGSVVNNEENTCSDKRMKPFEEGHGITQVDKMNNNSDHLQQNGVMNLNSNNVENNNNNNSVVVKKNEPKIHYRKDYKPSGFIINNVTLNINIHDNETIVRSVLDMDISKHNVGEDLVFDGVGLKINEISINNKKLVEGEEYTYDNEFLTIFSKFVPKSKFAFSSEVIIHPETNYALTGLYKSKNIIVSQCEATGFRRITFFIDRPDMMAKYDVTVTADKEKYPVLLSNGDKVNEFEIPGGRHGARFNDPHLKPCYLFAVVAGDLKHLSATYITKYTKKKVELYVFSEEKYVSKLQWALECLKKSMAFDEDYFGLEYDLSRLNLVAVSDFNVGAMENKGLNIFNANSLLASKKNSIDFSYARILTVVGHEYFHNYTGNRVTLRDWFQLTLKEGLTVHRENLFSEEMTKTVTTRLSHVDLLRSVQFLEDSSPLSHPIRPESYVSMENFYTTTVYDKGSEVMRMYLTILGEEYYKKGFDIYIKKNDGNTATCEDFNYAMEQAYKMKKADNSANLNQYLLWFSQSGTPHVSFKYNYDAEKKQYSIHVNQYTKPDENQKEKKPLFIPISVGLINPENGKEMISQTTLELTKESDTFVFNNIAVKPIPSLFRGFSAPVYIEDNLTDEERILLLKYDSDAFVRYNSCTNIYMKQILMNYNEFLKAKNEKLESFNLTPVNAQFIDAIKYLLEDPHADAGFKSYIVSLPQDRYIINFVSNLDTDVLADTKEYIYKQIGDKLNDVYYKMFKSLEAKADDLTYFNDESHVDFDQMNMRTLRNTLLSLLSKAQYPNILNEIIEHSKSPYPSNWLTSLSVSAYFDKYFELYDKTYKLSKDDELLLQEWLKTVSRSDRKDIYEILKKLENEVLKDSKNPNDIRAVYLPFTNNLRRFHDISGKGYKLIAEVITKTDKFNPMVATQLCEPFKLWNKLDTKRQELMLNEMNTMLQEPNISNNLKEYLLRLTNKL

[1] = target: Serine/threonine-protein kinase PLK3 (Homo sapiens, UniProt Q9H4B4); type: functional
[2] = target: Testis-specific serine/threonine-protein kinase 2 (Homo sapiens, UniProt Q96PF2); type: functional;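 also: part of the Navigating the Kinome panel, target entry STK22B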
Sequence of Testis-specific serine/threonine-protein kinase 2 (Q96PF2 whole entry): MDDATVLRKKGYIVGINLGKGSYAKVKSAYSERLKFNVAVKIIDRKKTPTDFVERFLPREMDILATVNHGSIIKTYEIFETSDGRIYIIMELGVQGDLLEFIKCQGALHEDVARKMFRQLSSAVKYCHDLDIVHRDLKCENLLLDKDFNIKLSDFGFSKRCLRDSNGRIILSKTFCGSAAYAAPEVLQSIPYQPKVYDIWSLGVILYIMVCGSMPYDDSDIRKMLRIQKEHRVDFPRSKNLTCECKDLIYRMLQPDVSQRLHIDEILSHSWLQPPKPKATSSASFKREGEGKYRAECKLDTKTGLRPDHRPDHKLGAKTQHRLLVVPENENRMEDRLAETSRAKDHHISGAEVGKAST

[3] = target: Serine/threonine-protein kinase 17A (Homo sapiens, UniProt Q9UEE5); type: functional
SRSF protein kinase 1 = SRSF protein kinase 1 (Homo sapiens, UniProt Q96SB4); type: functional;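 also: measured as one member of a kinome-wide kinase profiling panel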
Sequence of SRSF protein kinase 1 (Q96SB4 whole entry): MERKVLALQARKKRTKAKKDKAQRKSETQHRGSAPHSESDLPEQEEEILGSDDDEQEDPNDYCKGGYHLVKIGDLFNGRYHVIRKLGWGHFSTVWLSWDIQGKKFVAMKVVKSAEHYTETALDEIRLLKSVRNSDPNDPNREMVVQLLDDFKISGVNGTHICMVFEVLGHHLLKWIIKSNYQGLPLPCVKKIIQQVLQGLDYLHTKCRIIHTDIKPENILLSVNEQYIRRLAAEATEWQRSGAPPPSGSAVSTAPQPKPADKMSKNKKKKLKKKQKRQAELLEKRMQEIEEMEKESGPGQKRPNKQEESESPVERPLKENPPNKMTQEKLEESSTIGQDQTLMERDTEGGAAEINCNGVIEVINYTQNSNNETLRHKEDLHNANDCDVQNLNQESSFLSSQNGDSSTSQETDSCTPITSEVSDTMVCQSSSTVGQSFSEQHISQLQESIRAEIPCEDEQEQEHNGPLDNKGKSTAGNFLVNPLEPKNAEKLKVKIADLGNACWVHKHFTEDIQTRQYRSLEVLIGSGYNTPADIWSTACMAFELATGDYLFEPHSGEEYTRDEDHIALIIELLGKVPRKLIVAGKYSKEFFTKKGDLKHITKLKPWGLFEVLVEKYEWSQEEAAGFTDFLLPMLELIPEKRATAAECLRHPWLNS

[4] = target: Tyrosine-protein kinase JAK3 (Homo sapiens, UniProt P52333); type: functional
Sequence of Tyrosine-protein kinase JAK3 (P52333 whole entry, canonical isoform): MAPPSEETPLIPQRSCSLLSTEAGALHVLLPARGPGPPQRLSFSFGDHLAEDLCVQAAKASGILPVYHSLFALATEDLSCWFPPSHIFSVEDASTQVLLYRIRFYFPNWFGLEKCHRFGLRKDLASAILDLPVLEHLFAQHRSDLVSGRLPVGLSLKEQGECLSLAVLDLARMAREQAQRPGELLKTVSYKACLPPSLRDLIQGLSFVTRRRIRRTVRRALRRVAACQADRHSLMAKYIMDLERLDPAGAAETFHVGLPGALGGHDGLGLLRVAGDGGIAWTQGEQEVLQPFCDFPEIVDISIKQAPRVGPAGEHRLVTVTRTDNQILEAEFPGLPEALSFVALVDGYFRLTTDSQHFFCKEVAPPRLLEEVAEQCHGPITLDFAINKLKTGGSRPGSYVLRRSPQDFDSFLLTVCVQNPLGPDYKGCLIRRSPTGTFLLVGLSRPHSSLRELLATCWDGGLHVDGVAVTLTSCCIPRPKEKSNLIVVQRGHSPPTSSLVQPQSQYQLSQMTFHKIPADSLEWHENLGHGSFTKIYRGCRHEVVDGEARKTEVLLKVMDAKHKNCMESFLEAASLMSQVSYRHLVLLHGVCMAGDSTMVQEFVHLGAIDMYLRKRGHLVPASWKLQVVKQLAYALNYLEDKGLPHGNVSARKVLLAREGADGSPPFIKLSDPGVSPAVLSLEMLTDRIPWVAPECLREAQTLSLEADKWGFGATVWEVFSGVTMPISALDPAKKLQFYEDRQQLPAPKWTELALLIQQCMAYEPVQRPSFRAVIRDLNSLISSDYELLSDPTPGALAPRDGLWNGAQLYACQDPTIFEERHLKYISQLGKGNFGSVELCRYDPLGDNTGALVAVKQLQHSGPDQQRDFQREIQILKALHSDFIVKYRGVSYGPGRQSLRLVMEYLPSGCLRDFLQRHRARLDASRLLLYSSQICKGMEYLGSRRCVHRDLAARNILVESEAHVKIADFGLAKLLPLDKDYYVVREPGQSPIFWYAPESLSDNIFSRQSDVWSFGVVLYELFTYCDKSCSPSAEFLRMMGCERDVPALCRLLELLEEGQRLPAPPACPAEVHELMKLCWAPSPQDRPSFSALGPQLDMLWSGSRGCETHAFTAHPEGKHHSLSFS

[5] = target: Casein kinase I isoform gamma-1 (Homo sapiens, UniProt Q9HCP0); type: functional;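 also: measured as the CSNK1G1 member of a kinome profiling panel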
Sequence of Casein kinase I isoform gamma-1 (Q9HCP0 whole entry, canonical isoform): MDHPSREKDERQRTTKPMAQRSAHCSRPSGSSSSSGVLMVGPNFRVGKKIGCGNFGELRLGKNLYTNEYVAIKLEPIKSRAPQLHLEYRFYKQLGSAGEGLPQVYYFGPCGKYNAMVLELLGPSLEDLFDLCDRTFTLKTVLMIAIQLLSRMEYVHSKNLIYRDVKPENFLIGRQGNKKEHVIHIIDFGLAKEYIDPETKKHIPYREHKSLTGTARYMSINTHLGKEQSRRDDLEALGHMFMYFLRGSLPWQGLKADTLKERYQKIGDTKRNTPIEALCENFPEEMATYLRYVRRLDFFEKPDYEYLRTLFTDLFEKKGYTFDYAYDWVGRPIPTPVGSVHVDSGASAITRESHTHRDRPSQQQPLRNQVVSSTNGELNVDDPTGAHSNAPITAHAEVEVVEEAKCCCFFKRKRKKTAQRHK

[6] = target: Homeodomain-interacting protein kinase 2 (Homo sapiens, UniProt Q9H2X6); type: functional;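 also: measured within a kinome-wide kinase profiling panel, HIPK2 being one panel member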
Sequence of Homeodomain-interacting protein kinase 2 (Q9H2X6 whole entry): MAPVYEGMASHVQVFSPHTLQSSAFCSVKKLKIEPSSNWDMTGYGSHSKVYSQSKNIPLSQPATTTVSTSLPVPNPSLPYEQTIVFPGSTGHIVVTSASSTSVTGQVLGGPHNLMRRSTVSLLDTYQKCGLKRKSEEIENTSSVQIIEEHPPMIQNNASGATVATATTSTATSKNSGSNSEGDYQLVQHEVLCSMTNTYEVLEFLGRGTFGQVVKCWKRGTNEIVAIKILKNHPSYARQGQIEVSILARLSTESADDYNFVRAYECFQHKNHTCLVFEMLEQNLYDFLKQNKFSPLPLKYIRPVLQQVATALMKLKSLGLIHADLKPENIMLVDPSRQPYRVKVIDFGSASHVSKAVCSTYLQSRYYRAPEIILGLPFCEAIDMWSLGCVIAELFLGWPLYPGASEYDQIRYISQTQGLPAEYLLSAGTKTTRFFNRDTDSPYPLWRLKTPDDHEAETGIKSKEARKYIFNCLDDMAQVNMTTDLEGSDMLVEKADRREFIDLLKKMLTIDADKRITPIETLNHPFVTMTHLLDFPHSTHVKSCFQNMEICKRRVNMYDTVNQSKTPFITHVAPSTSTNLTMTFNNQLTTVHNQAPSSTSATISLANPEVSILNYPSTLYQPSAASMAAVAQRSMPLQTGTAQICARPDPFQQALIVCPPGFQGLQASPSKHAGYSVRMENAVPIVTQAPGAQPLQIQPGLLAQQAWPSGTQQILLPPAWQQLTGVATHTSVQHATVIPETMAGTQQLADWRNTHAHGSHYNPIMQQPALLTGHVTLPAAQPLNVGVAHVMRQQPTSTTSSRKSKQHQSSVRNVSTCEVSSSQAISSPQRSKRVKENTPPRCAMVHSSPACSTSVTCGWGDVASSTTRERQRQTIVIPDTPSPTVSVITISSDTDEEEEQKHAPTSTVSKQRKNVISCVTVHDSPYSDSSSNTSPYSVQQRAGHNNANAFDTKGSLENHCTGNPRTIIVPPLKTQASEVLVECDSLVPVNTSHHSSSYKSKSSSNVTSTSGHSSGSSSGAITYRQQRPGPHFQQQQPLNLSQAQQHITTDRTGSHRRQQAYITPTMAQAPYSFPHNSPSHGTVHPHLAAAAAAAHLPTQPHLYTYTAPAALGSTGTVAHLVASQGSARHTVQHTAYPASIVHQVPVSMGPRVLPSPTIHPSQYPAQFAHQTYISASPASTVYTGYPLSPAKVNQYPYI

[7] = target: Hepatocyte growth factor receptor (Homo sapiens, UniProt P08581); type: functional;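 also: kinase panel profiling across the kinome, with MET as the panel member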
[8] = target: MAP kinase-interacting serine/threonine-protein kinase 2 (Homo sapiens, UniProt Q9HBH9); type: functional
Sequence of MAP kinase-interacting serine/threonine-protein kinase 2 (Q9HBH9 whole entry): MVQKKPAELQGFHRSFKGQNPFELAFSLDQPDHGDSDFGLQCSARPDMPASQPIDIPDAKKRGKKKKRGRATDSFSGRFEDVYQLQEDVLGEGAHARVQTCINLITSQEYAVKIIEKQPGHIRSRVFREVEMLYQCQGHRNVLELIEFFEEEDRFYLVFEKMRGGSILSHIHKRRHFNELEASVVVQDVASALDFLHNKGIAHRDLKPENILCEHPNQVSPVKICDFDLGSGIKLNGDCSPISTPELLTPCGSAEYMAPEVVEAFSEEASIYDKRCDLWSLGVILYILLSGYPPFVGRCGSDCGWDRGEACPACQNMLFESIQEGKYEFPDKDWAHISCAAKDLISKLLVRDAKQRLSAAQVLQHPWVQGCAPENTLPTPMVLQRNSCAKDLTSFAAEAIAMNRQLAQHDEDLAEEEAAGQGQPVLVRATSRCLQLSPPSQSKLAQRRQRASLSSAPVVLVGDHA

Focal adhesion kinase 1 = Focal adhesion kinase 1 (Homo sapiens, UniProt Q05397); type: functional;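 also: measured as one member of a kinome panel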
[9] = target: Serine/threonine-protein kinase pim-2 (Homo sapiens, UniProt Q9P1W9); type: functional;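 also: value comes from a broad kinase panel profiling study in which PIM2 was one of the panel members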
Sequence of Serine/threonine-protein kinase pim-2 (Q9P1W9 whole entry): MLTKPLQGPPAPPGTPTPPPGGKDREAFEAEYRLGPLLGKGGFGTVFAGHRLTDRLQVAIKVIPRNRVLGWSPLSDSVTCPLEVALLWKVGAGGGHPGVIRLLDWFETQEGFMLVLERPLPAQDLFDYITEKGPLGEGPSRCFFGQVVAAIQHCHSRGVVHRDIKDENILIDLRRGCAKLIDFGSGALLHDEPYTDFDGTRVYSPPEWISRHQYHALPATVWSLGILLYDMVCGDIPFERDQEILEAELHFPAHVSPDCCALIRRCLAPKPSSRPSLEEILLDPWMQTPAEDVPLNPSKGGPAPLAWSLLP

[10] = target: Glycogen synthase kinase-3 beta (Homo sapiens, UniProt P49841); type: functional;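 also: value comes from a broad kinome profiling panel, with GSK3B as the panel member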
Sequence of Glycogen synthase kinase-3 beta (P49841 whole entry): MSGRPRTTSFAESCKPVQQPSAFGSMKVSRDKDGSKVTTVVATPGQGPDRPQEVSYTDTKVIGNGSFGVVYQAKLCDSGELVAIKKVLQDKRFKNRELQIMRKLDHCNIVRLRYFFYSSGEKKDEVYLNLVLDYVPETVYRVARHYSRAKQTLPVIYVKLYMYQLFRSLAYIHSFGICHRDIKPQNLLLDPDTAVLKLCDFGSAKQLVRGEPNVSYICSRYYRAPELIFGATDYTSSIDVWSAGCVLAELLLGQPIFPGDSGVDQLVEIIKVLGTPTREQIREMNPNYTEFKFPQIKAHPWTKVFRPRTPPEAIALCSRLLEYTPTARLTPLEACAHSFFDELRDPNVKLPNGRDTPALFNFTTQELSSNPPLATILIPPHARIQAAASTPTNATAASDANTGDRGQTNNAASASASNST

Aspartyl aminopeptidase = target: T2, Aspartyl aminopeptidase (Plasmodium falciparum 3D7, UniProt Q8I2J3)
T2 sequence (Q8I2J3 whole entry): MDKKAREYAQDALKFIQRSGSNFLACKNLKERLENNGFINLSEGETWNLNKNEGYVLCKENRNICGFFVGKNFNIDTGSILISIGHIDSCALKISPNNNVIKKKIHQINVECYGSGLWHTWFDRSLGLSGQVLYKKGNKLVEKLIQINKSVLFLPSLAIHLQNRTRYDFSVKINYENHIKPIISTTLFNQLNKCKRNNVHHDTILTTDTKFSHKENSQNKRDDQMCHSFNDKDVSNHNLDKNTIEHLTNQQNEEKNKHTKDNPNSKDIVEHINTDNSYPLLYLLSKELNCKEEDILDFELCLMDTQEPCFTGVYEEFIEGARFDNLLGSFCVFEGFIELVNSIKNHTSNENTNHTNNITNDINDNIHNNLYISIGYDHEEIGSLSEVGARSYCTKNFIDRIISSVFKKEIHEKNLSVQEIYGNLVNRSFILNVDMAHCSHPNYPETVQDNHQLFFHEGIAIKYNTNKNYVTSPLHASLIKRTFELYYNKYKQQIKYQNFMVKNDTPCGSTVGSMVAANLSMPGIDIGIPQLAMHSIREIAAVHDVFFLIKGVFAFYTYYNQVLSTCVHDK

[11] = target: T3, Mannose-6-phosphate isomerase (Homo sapiens, UniProt P34949); assay: human PMI inhibitors, high substrate, primary screen, biochemical, fluorescence intensity, high mannose 6-phosphate (AID 1220)
T3 sequence (P34949 whole entry): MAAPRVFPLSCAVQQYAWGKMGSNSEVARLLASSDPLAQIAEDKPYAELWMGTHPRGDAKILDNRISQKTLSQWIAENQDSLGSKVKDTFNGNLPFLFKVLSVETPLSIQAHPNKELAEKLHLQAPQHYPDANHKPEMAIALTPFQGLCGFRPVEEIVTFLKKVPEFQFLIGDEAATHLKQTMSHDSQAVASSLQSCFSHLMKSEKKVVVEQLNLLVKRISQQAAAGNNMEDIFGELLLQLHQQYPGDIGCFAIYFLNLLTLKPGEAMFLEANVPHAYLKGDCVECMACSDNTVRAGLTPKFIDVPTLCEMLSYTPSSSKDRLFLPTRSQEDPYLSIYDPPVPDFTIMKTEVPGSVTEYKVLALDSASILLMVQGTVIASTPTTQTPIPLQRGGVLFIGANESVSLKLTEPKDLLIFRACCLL

[12] = Counterscreen for activators of the function of SWI/SNF related, matrix associated, actin dependent regulator of chromatin, subfamily a, member 2 (SMARCA2, BRM): Luminescence-based cell-based high throughput dose response assay to identify non-selective compounds using the VP16 reporter assay.; type: functional
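For EC50 in this document: rise in luciferase luminescence after 24 h compound exposure marks nonselective activation.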

SMILES: N/C(=N\N=C/c1ccc(-c2ccc(O)c(C(=O)O)c2)o1)N[N+](=O)[O-]
IC50 (Aminopeptidase N): 10200 nM (active)

Ki [1]: 2000 nM (active) | Ki [2]: > 1580 nM (inactive) | Ki [3]: > 3980 nM (inactive) | Ki (SRSF protein kinase 1): 3160 nM (active) | Ki [4]: > 1580 nM (inactive) | Ki [5]: 2510 nM (active) | Ki [6]: > 3160 nM (inactive) | Ki [7]: > 3160 nM (inactive) | Ki [8]: 79.4 nM (active) | Ki (Focal adhesion kinase 1): 631 nM (active) | Ki [9]: 501 nM (active) | Ki [10]: 3160 nM (active)
SMILES: Cc1cccc(NC(=O)Nc2ccc3c(c2)CCc2sc4ncnc(N)c4c2-3)c1

SMILES: Cc1ccc(-n2sc3ccccc3c2=O)cc1
IC50 (Aspartyl aminopeptidase): 1250 nM (active) | IC50 [11]: 22000 nM (active) | EC50 [12]: 51500 nM (inactive)
